For orientation: Kd means the constant that tells how readily two partners part at equilibrium. Low values mean a tighter complex, high ones a looser complex.

Some results are limits rather than exact numbers.

The values that follow come from patent US10624897B2, “Chlorobenzene substituted azaaryl compounds” (TAIPEI MEDICAL UNIVERSITY, priority 2015, dated 2020).

Common to all, as to assay: Lipid kinase binding assay (Kd)
One experiment has as its target T1, PIP5K2B (Homo sapiens, UniProt P78356).
T1 construct: made in house; host or cells: E. coli BL21-derived host (T7 phage) or HEK-293
How it is done:
(§1) Kinase assays. For most assays, kinase-tagged T7 phage strains were prepared in an E. coli host derived from the BL21 strain. E. coli were grown to log-phase and infected with T7 phage and incubated with shaking at 32° C. until lysis. The lysates were centrifuged and filtered to remove cell debris. The remaining kinases were produced in HEK-293 cells and subsequently tagged with DNA for qPCR detection. […] The liganded beads were blocked with excess biotin and washed with blocking buffer (SeaBlock (Pierce), 1% BSA, 0.05% Tween 20, 1 mM DTT) to remove unbound ligand and to reduce non-specific binding. […] All reactions were performed in polystyrene 96-well plates in a final volume of 0.135 ml. […] The kinase concentration in the eluates was measured by qPCR.
(§2) An 11-point 3-fold serial dilution of each test compound was prepared in 100% DMSO at 100× final test concentration and subsequently diluted to 1× in the assay (final DMSO concentration=1%). Most Kds were determined using a compound top concentration=30,000 nM.
(§3) Binding constants (Kds) were calculated with a standard dose-response curve using the Hill equation: […]
(§4) The Hill Slope was set to −1. Curves were fitted using a non-linear least square fit with the Levenberg-Marquardt algorithm.

For the next experiment, the target named is T2, PIKFYVE (Homo sapiens, UniProt Q9Y2I7).
T2 construct: made in house; host or cells: E. coli BL21-derived host (T7 phage) or HEK-293
How it is done: as §1, §2, §3, §4

A further experiment has as its target T3, PIK3C2G (Homo sapiens, UniProt O75747).
T3 construct: made in house; host or cells: E. coli BL21-derived host (T7 phage) or HEK-293
How it is done:
as §1, §2, §3, §4

In another experiment the target is T4, PIP5K1C (Homo sapiens, UniProt O60331).
T4 construct: made in house; host or cells: E. coli BL21-derived host (T7 phage) or HEK-293
How it is done: as §1, §2, §3, §4

The target in the next experiment is T5, PIK3C3 (Homo sapiens, UniProt Q8NEB9).
T5 construct: made in house; host or cells: E. coli BL21-derived host (T7 phage) or HEK-293
How it is done: as §1, §2, §3, §4

T4 sequence (O60331 whole entry): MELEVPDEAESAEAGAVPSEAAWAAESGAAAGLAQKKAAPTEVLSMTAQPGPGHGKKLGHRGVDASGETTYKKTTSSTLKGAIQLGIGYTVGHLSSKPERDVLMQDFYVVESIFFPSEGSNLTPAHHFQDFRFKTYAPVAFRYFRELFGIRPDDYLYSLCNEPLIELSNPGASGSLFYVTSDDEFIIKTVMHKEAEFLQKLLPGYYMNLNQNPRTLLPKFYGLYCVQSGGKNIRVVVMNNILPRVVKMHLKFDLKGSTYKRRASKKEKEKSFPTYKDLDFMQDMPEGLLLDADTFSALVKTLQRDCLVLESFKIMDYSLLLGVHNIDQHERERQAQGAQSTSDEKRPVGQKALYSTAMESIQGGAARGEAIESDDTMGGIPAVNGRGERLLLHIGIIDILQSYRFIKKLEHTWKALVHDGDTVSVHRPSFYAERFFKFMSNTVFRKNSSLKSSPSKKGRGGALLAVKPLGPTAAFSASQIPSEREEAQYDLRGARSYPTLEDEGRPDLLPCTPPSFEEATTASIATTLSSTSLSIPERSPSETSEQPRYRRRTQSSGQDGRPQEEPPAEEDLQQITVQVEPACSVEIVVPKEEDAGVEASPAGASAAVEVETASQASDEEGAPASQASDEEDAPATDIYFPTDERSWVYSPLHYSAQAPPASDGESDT
T3 sequence (O75747 whole entry): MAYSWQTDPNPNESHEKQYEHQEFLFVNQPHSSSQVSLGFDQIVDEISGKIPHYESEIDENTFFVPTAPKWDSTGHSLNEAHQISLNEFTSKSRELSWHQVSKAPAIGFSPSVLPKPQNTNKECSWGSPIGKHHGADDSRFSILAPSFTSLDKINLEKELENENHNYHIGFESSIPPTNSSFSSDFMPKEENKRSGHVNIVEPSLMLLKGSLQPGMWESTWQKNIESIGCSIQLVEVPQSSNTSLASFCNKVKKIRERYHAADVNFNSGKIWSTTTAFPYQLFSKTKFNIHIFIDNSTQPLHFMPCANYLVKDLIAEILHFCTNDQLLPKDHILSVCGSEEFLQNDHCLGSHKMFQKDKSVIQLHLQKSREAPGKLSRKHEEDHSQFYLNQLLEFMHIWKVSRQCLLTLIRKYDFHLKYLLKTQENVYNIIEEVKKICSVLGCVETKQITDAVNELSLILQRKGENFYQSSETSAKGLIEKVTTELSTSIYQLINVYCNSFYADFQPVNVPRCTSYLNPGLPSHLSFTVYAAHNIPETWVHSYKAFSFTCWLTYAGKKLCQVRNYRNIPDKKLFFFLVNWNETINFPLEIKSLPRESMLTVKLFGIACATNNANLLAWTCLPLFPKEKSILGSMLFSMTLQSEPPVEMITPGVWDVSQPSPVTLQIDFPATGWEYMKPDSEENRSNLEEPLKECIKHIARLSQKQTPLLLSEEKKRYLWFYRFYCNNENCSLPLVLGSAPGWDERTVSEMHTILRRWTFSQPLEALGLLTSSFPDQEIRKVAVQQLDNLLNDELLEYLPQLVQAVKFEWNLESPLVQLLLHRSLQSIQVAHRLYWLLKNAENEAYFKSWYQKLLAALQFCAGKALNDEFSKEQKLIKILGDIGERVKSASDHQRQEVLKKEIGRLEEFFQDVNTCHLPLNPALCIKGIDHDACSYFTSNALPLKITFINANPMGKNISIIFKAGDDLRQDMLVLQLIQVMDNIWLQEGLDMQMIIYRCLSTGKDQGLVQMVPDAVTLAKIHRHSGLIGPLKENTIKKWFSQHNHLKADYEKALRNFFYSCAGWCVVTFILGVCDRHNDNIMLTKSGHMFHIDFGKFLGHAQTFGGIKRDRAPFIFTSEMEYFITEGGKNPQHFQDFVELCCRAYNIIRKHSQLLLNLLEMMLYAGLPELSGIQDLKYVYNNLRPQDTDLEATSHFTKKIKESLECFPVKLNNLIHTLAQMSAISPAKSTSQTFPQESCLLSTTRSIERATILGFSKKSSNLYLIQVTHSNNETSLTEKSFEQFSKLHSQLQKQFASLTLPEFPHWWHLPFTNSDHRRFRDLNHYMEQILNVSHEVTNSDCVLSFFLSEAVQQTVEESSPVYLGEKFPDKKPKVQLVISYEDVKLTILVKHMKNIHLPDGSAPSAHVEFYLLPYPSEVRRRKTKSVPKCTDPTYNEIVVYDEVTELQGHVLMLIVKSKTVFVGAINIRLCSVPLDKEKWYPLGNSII
T5 sequence (Q8NEB9 whole entry): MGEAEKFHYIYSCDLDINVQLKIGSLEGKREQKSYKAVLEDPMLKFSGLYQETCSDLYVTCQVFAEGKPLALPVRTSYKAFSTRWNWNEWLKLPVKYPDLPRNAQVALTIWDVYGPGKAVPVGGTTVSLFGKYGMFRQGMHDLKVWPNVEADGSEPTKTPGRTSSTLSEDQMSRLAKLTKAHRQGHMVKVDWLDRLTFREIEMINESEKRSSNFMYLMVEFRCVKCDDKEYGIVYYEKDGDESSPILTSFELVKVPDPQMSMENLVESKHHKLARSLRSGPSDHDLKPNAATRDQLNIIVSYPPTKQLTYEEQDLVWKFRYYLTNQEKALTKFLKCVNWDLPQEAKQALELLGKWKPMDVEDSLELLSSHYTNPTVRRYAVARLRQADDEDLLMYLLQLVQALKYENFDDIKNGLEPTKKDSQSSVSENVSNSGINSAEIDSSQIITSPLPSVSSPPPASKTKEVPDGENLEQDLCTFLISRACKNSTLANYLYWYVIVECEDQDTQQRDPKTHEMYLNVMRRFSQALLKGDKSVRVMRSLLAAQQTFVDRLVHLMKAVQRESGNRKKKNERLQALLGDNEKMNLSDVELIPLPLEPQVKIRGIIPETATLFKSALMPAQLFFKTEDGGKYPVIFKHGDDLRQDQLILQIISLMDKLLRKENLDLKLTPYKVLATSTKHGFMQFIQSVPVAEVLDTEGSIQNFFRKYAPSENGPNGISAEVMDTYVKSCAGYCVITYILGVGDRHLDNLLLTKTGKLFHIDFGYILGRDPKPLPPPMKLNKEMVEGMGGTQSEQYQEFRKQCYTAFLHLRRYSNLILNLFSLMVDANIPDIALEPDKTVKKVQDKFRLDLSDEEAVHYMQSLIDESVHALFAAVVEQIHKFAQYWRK
T1 sequence (P78356 whole entry): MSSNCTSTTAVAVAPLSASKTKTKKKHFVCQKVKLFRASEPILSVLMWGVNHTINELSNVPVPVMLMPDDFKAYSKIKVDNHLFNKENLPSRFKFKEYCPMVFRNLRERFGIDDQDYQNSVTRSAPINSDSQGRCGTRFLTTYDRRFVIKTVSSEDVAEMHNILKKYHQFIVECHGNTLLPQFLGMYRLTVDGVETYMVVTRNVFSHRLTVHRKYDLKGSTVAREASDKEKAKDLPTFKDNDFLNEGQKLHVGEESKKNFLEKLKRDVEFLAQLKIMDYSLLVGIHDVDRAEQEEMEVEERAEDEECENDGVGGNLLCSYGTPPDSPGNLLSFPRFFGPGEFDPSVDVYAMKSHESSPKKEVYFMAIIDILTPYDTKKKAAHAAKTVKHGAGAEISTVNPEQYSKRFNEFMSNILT

Take `CCN1CCN(c2ccc(Nc3ncnc(N(C)C(=O)Nc4c(Cl)c(OC)c(Cl)c(OC)c4Cl)n3)cc2)CC1` [MPT0L145, 1-(4-((4-(4-ethylpiperazin-1-yl)phenyl)amino)-1,3,5-triazin-2-yl)-1-methyl-3-(2,4,6-trichloro-3,5-dimethoxyphenyl)urea]: the dissociation constant Kd at PIP5K2B is greater than 10000 nM; at PIKFYVE, 2600 nM; on PIK3C2G it was greater than 10000 nM; at PIP5K1C, greater than 10000 nM; at PIK3C3 it was 0.53 nM.
